Format in all cases: cell-based
Test [1] deals with human tumour cell line KB. Kind of test: EGF/TGF-alpha-stimulated proliferation (thymidine incorporation) of KB cells. The following applies: TGF-alpha 10 ng/ml or EGF 20 ng/ml, 60 hours, then [3H]-thymidine 16-18 hours, read-out: IC50 for inhibition of the EGF/TGF-alpha-stimulated KB cell proliferation. The protocol:
KB cells (obtained from ATCC) were passaged in DMEM (BioWhittaker) in the presence of 10% FCS (Boehringer Mannheim), 50 μM beta-mercaptoethanol and standard antibiotics. As an indicator of EGF/TGF-alpha-stimulated cell proliferation, the EGF-inducedDNA synthesis was determined by measurement of the incorporation of radioactively labelled thymidine. For this, the celels were washed twice and 1500 cells per well were plated out in a 96-well plate in 200 μl IMDM (BioWhittaker) without serum in the presence of 50 μM beta-mercaptoethanol, standard antibiotics, TGF-alpha [10 ng/ml] or EGF [20 ng/ml] and various concentrations of the substances according to the invention (triplicates, maximum DMSO concentration 1%, see proliferation test with F/L-HERc cells). After 60 hours, [^3 H]-thymidine (0.1 μCi in 10 μl) was added for about 16-18 hours. Subsequent measurement of the thymidine incorporation gave IC50 values of 0.1-1 μM for inhibition of the EGF/TGF-alpha-stimulated KB cell proliferation for compounds 2, 6, 17, 18, 19, 72, 83, 93, 95, 96 and 104 of Example 1.
(In general: Dividing cells build labelled thymidine or BrdU into new DNA.)

A further test deals with T1, human EGF-R (Homo sapiens, UniProt P00533).
T1 construct: expressed in transfected cells; host or cells: F/L-HERc cells: murine IL-3-dependent line FDC-P1 infected with recombinant retrovirus (LXSN vector, GP+E86 packaging line) carrying human EGF-R cDNA
T1 sequence (P00533 25-1210): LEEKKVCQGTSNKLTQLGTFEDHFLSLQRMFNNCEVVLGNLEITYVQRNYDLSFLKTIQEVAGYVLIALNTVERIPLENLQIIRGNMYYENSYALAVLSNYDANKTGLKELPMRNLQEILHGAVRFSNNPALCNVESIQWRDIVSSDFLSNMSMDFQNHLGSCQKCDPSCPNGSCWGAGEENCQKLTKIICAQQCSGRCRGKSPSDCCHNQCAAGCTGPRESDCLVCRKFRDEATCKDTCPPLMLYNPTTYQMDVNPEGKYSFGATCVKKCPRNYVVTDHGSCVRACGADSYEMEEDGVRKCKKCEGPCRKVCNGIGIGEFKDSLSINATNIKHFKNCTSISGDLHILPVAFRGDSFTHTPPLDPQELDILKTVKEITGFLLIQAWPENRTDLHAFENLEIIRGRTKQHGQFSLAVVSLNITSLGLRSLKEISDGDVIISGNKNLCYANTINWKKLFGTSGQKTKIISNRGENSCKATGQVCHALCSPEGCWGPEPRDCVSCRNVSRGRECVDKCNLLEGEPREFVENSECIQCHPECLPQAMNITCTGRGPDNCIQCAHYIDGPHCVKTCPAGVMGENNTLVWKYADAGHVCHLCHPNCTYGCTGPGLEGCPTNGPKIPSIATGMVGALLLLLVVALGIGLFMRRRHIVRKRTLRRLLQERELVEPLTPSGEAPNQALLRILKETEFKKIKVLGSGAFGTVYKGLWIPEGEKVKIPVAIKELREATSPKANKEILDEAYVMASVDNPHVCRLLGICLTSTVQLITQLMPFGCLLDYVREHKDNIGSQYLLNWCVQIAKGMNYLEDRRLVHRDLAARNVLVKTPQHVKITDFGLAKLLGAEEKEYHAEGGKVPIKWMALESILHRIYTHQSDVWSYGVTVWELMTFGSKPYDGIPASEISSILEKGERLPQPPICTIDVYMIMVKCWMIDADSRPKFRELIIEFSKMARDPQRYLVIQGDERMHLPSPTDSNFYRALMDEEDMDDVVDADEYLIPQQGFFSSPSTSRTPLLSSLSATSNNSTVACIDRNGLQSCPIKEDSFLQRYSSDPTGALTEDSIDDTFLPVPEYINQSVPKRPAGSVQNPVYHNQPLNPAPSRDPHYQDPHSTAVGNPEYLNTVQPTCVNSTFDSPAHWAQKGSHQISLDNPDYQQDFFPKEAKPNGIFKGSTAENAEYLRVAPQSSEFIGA
The test can be described thus: Inhibition of EGF-dependent proliferation of F/L-HERc cells. The following applies: human EGF 20 ng/ml, 48 hours. From the text:
(§1) The inhibition of EGF-R-mediated signal transmission can be detected, for example, with cells which express human EGF-R, the survival and proliferation of which depend on stimulation by EGF or TGF-alpha. An interleukin-3 (IL-3)-dependent cell line of murine origin which was changed genetically such that it expresses functional human EGF-R was used here. The proliferation of these cells, called F/L-HERc, can therefore be stimulated either by murine IL-3 or by EGF (see von Ruden, T. et al. in EMBO J. 7, 2749-2756 (1988) and Pierce, J. H. et al. in Science 239, 628-631 (1988)).
(§2) The starting material used for the F/L-HERc cells was the cell line FDC-P1, the preparation of which has been described by Dexter, T. M. et al. in J. Exp. Med. 152, 1036-1047 (1980). Alternatively, however, other growth factor-dependent cells can also be used (see, for example, Pierce, J. H. et al. in Science 239, 628-631 (1988), Shibuya, H. et al. in Cell 70, 57-67 (1992) and Alexander, W. S. et al. in EMBO J. 10, 3683-3691 (1991)). Recombinant retroviruses were used for expression of the human EGF-R cDNA (see Ullrich, A. et al. in Nature 309, 418-425 (1984)), as described in yon Ruden, T. et al., EMBO J. 7, 2749-2756 (1988), with the difference that the retroviral vector LXSN (see Miller, A. D. et al. in BioTechniques 7, 980-990 (1989)) was used for expression of the EGF-R cDNA and the line GP+E86 (see Markowitz, D. et al. in J. Virol. 62, 1120-1124 (1988)) was used as the packing cell.
(§3) The test was carried out as follows:
(§4) F/L HERc cells were cultured at 37° C. and 5% CO2 in RPMI/1640 medium (BioWhittaker), supplemented with 10% foetal bovine serum (FCS, Boehringer Mannheim), 2 mM glutamine (BioWhittaker), standard antibiotics and 20 ng/ml of human EGF (Promega). For investigation of the inhibitory activity of the compounds according to the invention, 1.5×10^4 cells per well were cultured in triplicate in 96-well plates in the above medium (200 μl), proliferation of the cells being stimulated with either EGF (20 ng/ml) or murine IL-3. Culture stocks of the cell line X63/0 mIL-3 were used as the source for IL-3 (see Karasuyama, H. et al. in Eur. J. Immunol. 18, 97-104 (1988)). The compounds according to the invention were dissolved in 100% dimethyl sulphoxide (DMSO) and added to the cultures in various dilutions, the maximum DMSO concentration being 1%. The cultures were incubated at 37° C. for 48 hours.
(§5) To determine the inhibitory activity of the compounds according to the invention, the relative cell count was measured in OD units with Cell Titer 96™ Aqueous Non-Radioactive Cell Proliferation Assay (Promega). The relative cell count was calculated in per cent of the control (F/LHERc cells without inhibitor) and the active compound concentration which inhibits the proliferation of the cells to 50% (IC50) was deduced.

For another test, the system named is F/L-HERc cells. The test can be described thus: Inhibition of IL-3-dependent proliferation of F/L-HERc cells. Particulars: Mus musculus, murine IL-3, 48 hours.
Excerpt: as §1, §2, §3, §4, §5

`Cc1cccc(Nc2ncnc3cnc(N4CCCC4)nc23)c1` [Example 1(18), 4-[(3-Methylphenyl)amino]-6-(1-pyrrolidinyl)-pyrimido[5,4-d]pyrimidine]: the IC50 in test [1] lay within 100 to 1000 nM.
As for `CC(C)Nc1ncc2ncnc(Nc3cccc(Br)c3)c2n1` [Example 1(95), 4-[(3-Bromophenyl)amino]-6-(isopropylamino)-pyrimido[5,4-d]pyrimidine], the IC50 in test [1] is 100 to 1000 nM.
As for `Cc1cccc(Nc2ncnc3cnc(NC(C)(C)C)nc23)c1` [1(6), 4-[(3-Methylphenyl)amino]-6-(tert-butylamino)-pyrimido[5,4-d]pyrimidine], the results for the IC50 (against human EGF-R; in test [1]; in the test with F/L-HERc cells) were 5 nM, 100 to 1000 nM and over 10000 nM, respectively.
In the case of `Cc1cccc(Nc2ncnc3cnc(N4CCOCC4)nc23)c1` [1(19), 4-[(3-Methylphenyl)amino]-6-(morpholino)-pyrimido[5,4-d]pyrimidine], the IC50 is 50 nM at human EGF-R, 100 to 1000 nM in test [1] and over 10000 nM in the test on F/L-HERc cells.
As to `Cc1cccc(Nc2ncnc3cnc(NC(C)C)nc23)c1` [Example 1(2), 4-[(3-Methylphenyl)amino]-6-(isopropylamino)-pyrimido[5,4-d]pyrimidine], the IC50 in test [1] was in the range of 100 to 1000 nM.
Consider `Cc1cccc(Nc2ncnc3cnc(NC4CC4)nc23)c1` [1(17), 4-[(3-Methylphenyl)amino]-6-(cyclopropylamino)-pyrimido[5,4-d]pyrimidine], for which the IC50 was 40 nM on human EGF-R, 100 to 1000 nM in test [1] and over 3000 nM with F/L-HERc cells.
Turning to `CC(C)Nc1ncc2ncnc(Nc3cccc(Cl)c3)c2n1` [Example 1(96), 4-[(3-Chlorophenyl)amino]-6-(isopropylamino)-pyrim-ido[5,4-d]pyrimidine], in test [1], the IC50 lay within 100 to 1000 nM.
Turning to `Cc1cccc(Nc2ncnc3cnc(N[C@H]4CC[C@H](O)CC4)nc23)c1` [1(72), 4-[(3-Methylphenyl)amino]-6-[(trans-4-hydroxycyclohexyl)amino]-pyrimido[5,4-d]pyrimidine], the IC50 is 3 nM against human EGF-R, 100 to 1000 nM in test [1] and over 3000 nM in the test on F/L-HERc cells.
For the molecule `Clc1cccc(Nc2ncnc3cnc(N4CCCC4)nc23)c1` [Example 1(93), 4-[(3-Chlorophenyl)amino]-6-(1-pyrrolidinyl)-pyrim-ido[5,4-d]pyrimidine], the IC50 in test [1] was 100 to 1000 nM.
In the case of `O[C@H]1CC[C@H](Nc2ncc3ncnc(Nc4cccc(Br)c4)c3n2)CC1` [Example 1(104), 4-[(3-Bromophenyl)amino]-6-[(trans-4-hydroxycyclohexyl)-amino]pyrimido[5,4-d]pyrimidine], the IC50 in test [1] was in the range of 100 to 1000 nM.
Same read-out and setting: the figure for `Clc1cccc(Nc2ncnc3cnc(NC4CC4)nc23)c1` [Example 1(83), 4-[(3-Chlorophenyl)amino]-6-(cyclopropylamino)-pyrimido[5,4-d]pyrimidine] is 100 to 1000 nM.

Values taken from patent US5707989A, “Pyrimido[5,4-D]pyrimidines, medicaments comprising these compounds, their use and processes for their preparation” (Dr. Karl Thomae GmbH, priority 1994, dated 1998).
